Numbers after ± are expanded uncertainties.
Legend:
[1] = for mass density / kinematic viscosity: 101.33 kPa, Liquid; for mass density: Vibrating tube method; for surface tension liquid-gas / kinematic viscosity: Surface laser light scattering (SLLS)
[2] = refractive index (Na D-line) (dimensionless); conditions: 101.33 kPa, Liquid, Standard Abbe refractometry

CCCCCCCCCCCCCC(=O)OCC [ethyl tetradecanoate]
Conditions	kinematic viscosity [m2/s]	mass density [kg/m3]	refractive index	surface tension liquid-gas [mN/m]
[1], 293.15 K	–	860.8 ± 1.7	–	–
[1], 303.15 K	–	853.07 ± 1.7	–	–
[1], 313.15 K	–	845.46 ± 1.7	–	–
[1], 323.14 K	2.63e-06 ± 8.9e-08	–	–	24.08 ± 0.47
[1], 323.15 K	–	837.86 ± 1.7	–	–
[1], 333.15 K	–	830.3 ± 1.7	–	–
[1], 343.15 K	–	822.77 ± 1.6	–	–
[1], 348.16 K	1.9e-06 ± 7.8e-08	–	–	22.25 ± 0.52
[1], 353.15 K	–	815.26 ± 1.6	–	–
[1], 363.15 K	–	807.75 ± 1.6	–	–
[1], 373.15 K	–	799.27 ± 1.6	–	–
[1], 373.22 K	1.43e-06 ± 7.2e-08	–	–	20.56 ± 0.24
[1], 383.15 K	–	792.77 ± 1.6	–	–
[1], 393.15 K	–	785.27 ± 1.6	–	–
[1], 398.24 K	1.12e-06 ± 4.3e-08	–	–	19.48 ± 0.18
[1], 403.15 K	–	777.75 ± 1.6	–	–
[1], 413.15 K	–	770.21 ± 1.6	–	–
[1], 423.15 K	–	762.65 ± 1.5	–	–
[1], 423.26 K	8.97e-07 ± 3.2e-08	–	–	18.15 ± 0.3
[1], 433.15 K	–	755.04 ± 1.5	–	–
[1], 443.15 K	–	747.42 ± 1.5	–	–
[1], 448.28 K	7.25e-07 ± 2.5e-08	–	–	16.53 ± 0.1
[1], 453.15 K	–	739.78 ± 1.5	–	–
[2], 288.15 K	–	–	1.43841 ± 0.00049	–
[2], 293.15 K	–	–	1.43636 ± 0.00049	–
[2], 298.15 K	–	–	1.43432 ± 0.00049	–
[2], 303.15 K	–	–	1.4323 ± 0.00049	–
[2], 308.15 K	–	–	1.43026 ± 0.00049	–
[2], 313.15 K	–	–	1.4282 ± 0.00049	–
[2], 318.15 K	–	–	1.42613 ± 0.00049	–
[2], 323.15 K	–	–	1.42407 ± 0.00049	–
[2], 328.15 K	–	–	1.42205 ± 0.00049	–
[2], 333.15 K	–	–	1.42004 ± 0.00049	–
[2], 338.15 K	–	–	1.41803 ± 0.00049	–
[2], 343.15 K	–	–	1.41603 ± 0.00049	–
[2], 348.15 K	–	–	1.41406 ± 0.00049	–
[2], 353.15 K	–	–	1.41208 ± 0.00049	–
[2], 358.15 K	–	–	1.4101 ± 0.00049	–

CCCCCC(=O)OCC [ethyl hexanoate]
Conditions	kinematic viscosity [m2/s]	mass density [kg/m3]	refractive index	surface tension liquid-gas [mN/m]
[1], 293.15 K	–	871.07 ± 1.8	–	–
[1], 298.26 K	1.13e-06 ± 4.5e-08	–	–	24.65 ± 0.38
[1], 303.15 K	–	861.61 ± 1.7	–	–
[1], 313.15 K	–	851.2 ± 1.7	–	–
[1], 323.06 K	8.14e-07 ± 3.5e-08	–	–	22.27 ± 0.4
[1], 323.15 K	–	842.71 ± 1.7	–	–
[1], 333.15 K	–	833.25 ± 1.7	–	–
[1], 343.15 K	–	823.72 ± 1.7	–	–
[1], 348.04 K	6.25e-07 ± 2.4e-08	–	–	20.08 ± 0.34
[1], 353.15 K	–	814.13 ± 1.6	–	–
[1], 363.15 K	–	804.45 ± 1.6	–	–
[1], 372.96 K	5e-07 ± 1.9e-08	–	–	17.81 ± 0.24
[1], 373.15 K	–	794.69 ± 1.6	–	–
[1], 383.15 K	–	784.83 ± 1.6	–	–
[1], 393.15 K	–	774.87 ± 1.6	–	–
[1], 397.73 K	4.11e-07 ± 1.7e-08	–	–	15.68 ± 0.11
[1], 403.15 K	–	764.77 ± 1.5	–	–
[1], 413.15 K	–	754.53 ± 1.5	–	–
[1], 422.94 K	3.46e-07 ± 1.6e-08	–	–	13.51 ± 0.15
[1], 423.15 K	–	744.07 ± 1.5	–	–
[1], 447.88 K	3.03e-07 ± 1.5e-08	–	–	11.43 ± 0.25
[2], 278.15 K	–	–	1.41438 ± 0.00053	–
[2], 283.15 K	–	–	1.4121 ± 0.00053	–
[2], 288.15 K	–	–	1.40982 ± 0.00053	–
[2], 293.15 K	–	–	1.40753 ± 0.00053	–
[2], 298.15 K	–	–	1.40525 ± 0.00053	–
[2], 303.15 K	–	–	1.40295 ± 0.00053	–
[2], 308.15 K	–	–	1.40063 ± 0.00053	–
[2], 313.15 K	–	–	1.39829 ± 0.00053	–
[2], 318.15 K	–	–	1.39594 ± 0.00053	–
[2], 323.15 K	–	–	1.3936 ± 0.00053	–
[2], 328.15 K	–	–	1.39128 ± 0.00053	–
[2], 333.15 K	–	–	1.38897 ± 0.00053	–
[2], 338.15 K	–	–	1.38667 ± 0.00053	–
[2], 343.15 K	–	–	1.38438 ± 0.00053	–
[2], 348.15 K	–	–	1.3821 ± 0.00053	–
[2], 353.15 K	–	–	1.37983 ± 0.00053	–
[2], 358.15 K	–	–	1.37754 ± 0.00053	–

CCCCCCC(=O)OC [methyl heptanoate]
Conditions	kinematic viscosity [m2/s]	mass density [kg/m3]	refractive index	surface tension liquid-gas [mN/m]
[1], 293.15 K	–	879.29 ± 1.8	–	–
[1], 298.13 K	1.22e-06 ± 3.8e-08	–	–	24.75 ± 0.52
[1], 303.15 K	–	870.75 ± 1.8	–	–
[1], 313.15 K	–	861.6 ± 1.8	–	–
[1], 323.15 K	–	852.39 ± 1.7	–	–
[1], 323.17 K	8.92e-07 ± 2.9e-08	–	–	23 ± 0.35
[1], 333.15 K	–	843.15 ± 1.7	–	–
[1], 343.15 K	–	833.87 ± 1.7	–	–
[1], 348.19 K	6.79e-07 ± 2.4e-08	–	–	21.02 ± 0.31
[1], 353.15 K	–	824.55 ± 1.7	–	–
[1], 363.15 K	–	814.17 ± 1.6	–	–
[1], 373.15 K	–	805.69 ± 1.6	–	–
[1], 373.26 K	5.32e-07 ± 2e-08	–	–	18.72 ± 0.17
[1], 383.15 K	–	796.11 ± 1.6	–	–
[1], 393.15 K	–	786.44 ± 1.6	–	–
[1], 398.29 K	4.34e-07 ± 1.8e-08	–	–	16.66 ± 0.12
[1], 403.15 K	–	776.63 ± 1.6	–	–
[1], 413.15 K	–	766.7 ± 1.6	–	–
[1], 423.15 K	–	756.62 ± 1.5	–	–
[1], 423.26 K	3.66e-07 ± 1.6e-08	–	–	14.43 ± 0.13
[1], 433.15 K	–	746.31 ± 1.5	–	–
[1], 448.29 K	3.14e-07 ± 1.5e-08	–	–	12.33 ± 0.12
[2], 278.15 K	–	–	1.41865 ± 0.00055	–
[2], 283.15 K	–	–	1.41643 ± 0.00055	–
[2], 288.15 K	–	–	1.41421 ± 0.00055	–
[2], 293.15 K	–	–	1.41199 ± 0.00055	–
[2], 298.15 K	–	–	1.40976 ± 0.00055	–
[2], 303.15 K	–	–	1.40753 ± 0.00055	–
[2], 308.15 K	–	–	1.4053 ± 0.00055	–
[2], 313.15 K	–	–	1.40301 ± 0.00055	–
[2], 318.15 K	–	–	1.4007 ± 0.00055	–
[2], 323.15 K	–	–	1.39841 ± 0.00055	–
[2], 328.15 K	–	–	1.39614 ± 0.00055	–
[2], 333.15 K	–	–	1.39389 ± 0.00055	–
[2], 338.15 K	–	–	1.39167 ± 0.00055	–
[2], 343.15 K	–	–	1.38946 ± 0.00055	–
[2], 348.15 K	–	–	1.38724 ± 0.00055	–
[2], 353.15 K	–	–	1.38501 ± 0.00055	–
[2], 358.15 K	–	–	1.38276 ± 0.00055	–

From the NIST ThermoML archive (doi:10.1016/j.jct.2019.02.025)
